Source: paper PMC4774911, “Biochemical Screening of Five Protein Kinases from Plasmodium falciparum against 14,000 Cell-Active Compounds” (PLoS ONE, 2016)
“And” between values parts separate entries of the source, which are not always exact repeats. Equal values may be shown once.

Legend:
Assay in all cases: biochemical
Parameters in all cases: endogenous in cells; host or cells: K562 cell extract; species or system K562 (extract); replicate k of n = 2 (each experiment ID is one independent experiment; two experiment IDs per compound)
Details in all cases: read-out: KDapp
CAMKK2 = CAMKK2 (Homo sapiens, UniProt Q96RR4)
CSNK1D = CSNK1D (Homo sapiens, UniProt P48730)
Chain of CSNK1D (P48730 whole entry): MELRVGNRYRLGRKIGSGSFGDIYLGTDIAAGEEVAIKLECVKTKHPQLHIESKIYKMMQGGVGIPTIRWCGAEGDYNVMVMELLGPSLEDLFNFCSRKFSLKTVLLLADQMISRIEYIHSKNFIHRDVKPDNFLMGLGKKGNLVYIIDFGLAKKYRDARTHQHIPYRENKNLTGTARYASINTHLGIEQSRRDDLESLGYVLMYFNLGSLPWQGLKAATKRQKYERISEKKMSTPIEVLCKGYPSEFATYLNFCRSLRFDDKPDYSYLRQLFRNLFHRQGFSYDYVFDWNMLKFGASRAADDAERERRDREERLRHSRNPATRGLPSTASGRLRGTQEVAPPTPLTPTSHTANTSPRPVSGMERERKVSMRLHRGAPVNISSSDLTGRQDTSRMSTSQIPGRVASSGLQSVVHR

CSK = CSK (Homo sapiens, UniProt P41240)
PTK2 = PTK2 (Homo sapiens, UniProt Q05397)
Chain of PTK2 (Q05397 whole entry): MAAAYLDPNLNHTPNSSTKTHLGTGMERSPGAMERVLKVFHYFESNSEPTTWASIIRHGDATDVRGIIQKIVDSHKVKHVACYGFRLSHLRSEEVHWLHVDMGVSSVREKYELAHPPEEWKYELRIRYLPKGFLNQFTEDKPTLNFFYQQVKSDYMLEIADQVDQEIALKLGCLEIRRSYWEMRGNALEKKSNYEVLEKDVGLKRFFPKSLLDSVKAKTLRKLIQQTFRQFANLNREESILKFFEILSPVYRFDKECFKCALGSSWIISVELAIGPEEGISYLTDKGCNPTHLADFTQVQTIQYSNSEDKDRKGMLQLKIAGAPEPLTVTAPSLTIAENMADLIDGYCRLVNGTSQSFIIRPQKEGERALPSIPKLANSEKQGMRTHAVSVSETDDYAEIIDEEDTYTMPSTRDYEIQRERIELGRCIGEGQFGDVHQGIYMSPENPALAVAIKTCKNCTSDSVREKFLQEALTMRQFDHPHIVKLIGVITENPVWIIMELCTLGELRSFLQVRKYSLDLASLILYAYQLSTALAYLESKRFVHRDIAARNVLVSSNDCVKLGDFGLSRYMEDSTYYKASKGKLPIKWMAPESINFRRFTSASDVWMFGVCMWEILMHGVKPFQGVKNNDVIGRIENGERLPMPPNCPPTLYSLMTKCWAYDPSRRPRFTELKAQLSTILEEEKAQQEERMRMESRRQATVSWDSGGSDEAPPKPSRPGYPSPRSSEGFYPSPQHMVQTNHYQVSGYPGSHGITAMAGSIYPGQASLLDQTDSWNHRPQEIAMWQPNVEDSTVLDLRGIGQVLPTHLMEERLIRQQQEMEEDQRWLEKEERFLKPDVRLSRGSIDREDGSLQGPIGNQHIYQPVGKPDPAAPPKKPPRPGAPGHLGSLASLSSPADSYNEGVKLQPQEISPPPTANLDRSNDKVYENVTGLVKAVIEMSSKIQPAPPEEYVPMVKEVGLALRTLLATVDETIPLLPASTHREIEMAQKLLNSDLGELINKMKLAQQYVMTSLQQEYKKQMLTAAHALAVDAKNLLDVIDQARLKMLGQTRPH

CSNK1E = CSNK1E (Homo sapiens, UniProt P49674)
Chain of CSNK1E (P49674 whole entry): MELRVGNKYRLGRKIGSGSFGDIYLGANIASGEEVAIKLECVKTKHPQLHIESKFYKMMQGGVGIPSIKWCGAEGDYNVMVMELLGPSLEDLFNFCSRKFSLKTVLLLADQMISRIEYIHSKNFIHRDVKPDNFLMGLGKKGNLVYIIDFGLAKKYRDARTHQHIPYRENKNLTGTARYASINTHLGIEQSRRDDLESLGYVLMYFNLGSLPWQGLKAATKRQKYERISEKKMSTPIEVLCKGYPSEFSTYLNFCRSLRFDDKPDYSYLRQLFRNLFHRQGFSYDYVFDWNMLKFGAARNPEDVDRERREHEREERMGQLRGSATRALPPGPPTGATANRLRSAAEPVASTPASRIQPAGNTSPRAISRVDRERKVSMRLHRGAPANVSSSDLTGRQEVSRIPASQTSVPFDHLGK

MAP2K5 = biological target: T1, MAP2K5 (Homo sapiens, UniProt Q13163)
T1 sequence (Q13163 1-448): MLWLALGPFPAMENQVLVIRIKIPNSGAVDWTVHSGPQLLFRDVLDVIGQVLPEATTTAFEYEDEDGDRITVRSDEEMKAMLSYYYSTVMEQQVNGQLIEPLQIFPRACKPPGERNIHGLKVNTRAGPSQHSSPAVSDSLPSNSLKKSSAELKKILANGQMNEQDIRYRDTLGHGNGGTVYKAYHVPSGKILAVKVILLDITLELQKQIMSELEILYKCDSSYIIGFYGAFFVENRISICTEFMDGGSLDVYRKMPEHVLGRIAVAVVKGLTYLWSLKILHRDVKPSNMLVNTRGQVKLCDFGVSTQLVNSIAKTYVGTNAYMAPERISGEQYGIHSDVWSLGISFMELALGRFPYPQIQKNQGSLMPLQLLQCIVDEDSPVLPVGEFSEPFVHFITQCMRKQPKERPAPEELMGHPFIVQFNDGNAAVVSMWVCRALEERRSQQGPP

MINK1 = MINK1 (Homo sapiens, UniProt Q8N4C8)
ADCK1 = biological target: T2, ADCK1 (Homo sapiens, UniProt Q86TW2)
T2 sequence (Q86TW2 1-530): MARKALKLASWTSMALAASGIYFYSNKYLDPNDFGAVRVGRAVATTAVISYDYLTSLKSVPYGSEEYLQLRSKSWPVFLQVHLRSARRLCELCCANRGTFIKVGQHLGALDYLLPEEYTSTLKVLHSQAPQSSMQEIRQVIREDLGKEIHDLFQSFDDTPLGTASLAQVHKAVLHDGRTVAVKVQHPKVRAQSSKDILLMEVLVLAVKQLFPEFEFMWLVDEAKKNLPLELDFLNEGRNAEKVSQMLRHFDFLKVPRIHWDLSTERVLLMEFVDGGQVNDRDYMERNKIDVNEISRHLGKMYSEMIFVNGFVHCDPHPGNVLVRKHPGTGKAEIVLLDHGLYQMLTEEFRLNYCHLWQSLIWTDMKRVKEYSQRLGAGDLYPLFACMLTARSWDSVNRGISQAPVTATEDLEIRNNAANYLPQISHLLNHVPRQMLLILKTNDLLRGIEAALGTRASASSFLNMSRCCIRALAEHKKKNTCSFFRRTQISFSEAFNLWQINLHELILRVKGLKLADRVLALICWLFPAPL

SRC = SRC (Homo sapiens, UniProt P12931)
Chain of SRC (P12931 whole entry): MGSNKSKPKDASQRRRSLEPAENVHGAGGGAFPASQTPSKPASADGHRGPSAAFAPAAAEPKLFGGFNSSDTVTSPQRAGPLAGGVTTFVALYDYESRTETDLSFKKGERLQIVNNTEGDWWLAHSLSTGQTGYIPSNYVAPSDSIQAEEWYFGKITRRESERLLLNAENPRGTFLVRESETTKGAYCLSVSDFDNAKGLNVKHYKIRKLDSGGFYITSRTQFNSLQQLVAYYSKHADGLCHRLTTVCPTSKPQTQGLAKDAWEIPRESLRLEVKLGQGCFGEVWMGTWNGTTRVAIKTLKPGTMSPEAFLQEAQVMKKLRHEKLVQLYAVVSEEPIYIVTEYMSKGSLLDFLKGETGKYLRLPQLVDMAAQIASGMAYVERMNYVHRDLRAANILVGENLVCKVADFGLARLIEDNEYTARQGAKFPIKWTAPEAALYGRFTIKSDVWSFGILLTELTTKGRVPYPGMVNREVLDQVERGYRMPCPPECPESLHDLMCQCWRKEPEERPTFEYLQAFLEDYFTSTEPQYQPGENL

MAP3K11 = MAP3K11 (Homo sapiens, UniProt Q16584)
Chain of MAP3K11 (Q16584 whole entry): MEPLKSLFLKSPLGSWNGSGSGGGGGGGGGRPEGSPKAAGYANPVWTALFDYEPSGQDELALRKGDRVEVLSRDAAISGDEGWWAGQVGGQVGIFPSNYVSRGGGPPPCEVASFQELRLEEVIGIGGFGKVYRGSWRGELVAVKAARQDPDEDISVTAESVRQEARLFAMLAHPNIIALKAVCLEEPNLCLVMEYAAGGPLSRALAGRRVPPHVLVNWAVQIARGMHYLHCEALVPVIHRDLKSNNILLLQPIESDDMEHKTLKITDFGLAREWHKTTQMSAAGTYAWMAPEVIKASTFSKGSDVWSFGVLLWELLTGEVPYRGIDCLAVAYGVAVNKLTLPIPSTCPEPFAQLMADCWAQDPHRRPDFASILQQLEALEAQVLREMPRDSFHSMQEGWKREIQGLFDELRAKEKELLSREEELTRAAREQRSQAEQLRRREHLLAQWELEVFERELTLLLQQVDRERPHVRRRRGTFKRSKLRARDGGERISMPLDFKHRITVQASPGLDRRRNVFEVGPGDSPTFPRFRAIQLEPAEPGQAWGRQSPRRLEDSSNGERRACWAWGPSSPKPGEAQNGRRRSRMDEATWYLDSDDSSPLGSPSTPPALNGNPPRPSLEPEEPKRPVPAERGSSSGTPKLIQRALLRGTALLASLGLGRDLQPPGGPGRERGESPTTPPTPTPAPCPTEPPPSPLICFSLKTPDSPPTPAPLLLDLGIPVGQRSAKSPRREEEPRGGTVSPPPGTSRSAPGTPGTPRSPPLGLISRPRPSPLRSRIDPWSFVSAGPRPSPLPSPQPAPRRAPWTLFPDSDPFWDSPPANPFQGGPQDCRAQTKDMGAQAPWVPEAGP

BUB1 = BUB1 (Homo sapiens, UniProt O43683)
Chain of BUB1 (O43683 whole entry): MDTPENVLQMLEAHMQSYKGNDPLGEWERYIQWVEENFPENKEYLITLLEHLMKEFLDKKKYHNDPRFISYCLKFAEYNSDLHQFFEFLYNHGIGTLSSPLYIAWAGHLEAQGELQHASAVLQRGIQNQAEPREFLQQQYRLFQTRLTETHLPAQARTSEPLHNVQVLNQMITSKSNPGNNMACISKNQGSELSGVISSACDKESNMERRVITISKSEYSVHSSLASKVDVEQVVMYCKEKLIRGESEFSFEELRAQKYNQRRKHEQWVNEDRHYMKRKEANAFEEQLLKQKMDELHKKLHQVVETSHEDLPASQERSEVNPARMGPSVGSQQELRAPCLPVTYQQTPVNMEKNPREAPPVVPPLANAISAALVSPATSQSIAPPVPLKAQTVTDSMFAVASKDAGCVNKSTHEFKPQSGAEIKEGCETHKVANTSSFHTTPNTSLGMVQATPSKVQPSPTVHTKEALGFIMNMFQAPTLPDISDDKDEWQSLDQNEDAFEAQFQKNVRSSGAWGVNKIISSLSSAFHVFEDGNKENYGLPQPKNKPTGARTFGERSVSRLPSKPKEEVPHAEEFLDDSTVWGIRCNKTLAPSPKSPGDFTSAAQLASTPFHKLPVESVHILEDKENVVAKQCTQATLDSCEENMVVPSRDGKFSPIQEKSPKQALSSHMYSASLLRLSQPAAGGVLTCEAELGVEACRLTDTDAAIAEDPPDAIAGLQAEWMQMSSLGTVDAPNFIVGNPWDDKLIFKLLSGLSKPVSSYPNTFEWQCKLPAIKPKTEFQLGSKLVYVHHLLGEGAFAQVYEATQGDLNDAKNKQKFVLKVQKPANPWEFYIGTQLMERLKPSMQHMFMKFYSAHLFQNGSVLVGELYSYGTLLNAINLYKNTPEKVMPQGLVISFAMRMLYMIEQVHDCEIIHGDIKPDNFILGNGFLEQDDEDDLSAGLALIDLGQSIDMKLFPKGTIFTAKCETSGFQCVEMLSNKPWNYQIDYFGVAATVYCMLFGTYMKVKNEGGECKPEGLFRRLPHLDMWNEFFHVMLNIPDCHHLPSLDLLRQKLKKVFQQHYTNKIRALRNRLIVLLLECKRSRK

RIPK2 = RIPK2 (Homo sapiens, UniProt O43353)
Chain of RIPK2 (O43353 whole entry): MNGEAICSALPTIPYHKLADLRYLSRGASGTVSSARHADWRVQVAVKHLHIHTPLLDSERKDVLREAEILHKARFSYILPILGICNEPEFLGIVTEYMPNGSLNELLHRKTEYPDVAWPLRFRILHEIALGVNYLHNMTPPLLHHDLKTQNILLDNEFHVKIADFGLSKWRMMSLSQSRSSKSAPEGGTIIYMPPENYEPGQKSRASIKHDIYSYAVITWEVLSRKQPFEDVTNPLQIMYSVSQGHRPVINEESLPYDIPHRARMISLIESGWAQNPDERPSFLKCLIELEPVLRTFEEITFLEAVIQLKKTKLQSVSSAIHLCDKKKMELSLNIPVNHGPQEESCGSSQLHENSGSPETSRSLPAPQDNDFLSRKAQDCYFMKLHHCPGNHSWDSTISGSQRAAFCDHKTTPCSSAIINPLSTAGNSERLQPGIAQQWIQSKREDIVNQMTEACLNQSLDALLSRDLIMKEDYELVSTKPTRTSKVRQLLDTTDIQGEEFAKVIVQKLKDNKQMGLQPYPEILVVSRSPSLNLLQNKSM

In the case of CN1CCN(c2ccc(Nc3ncc(C#N)c(Nc4ccccc4C(N)=O)n3)cc2)CC1.Cl [TCMDC-134116], the Kd (CAMKK2) is reported as 131 nM and 139 nM, the Kd (CSNK1D) is reported as 1150 nM and the Kd (CSK) is reported as 2470 nM. The Kd (PTK2) was 13.2 nM and 17.4 nM, the Kd (CSNK1E) was 1100 nM and 2810 nM and the Kd (MAP2K5) was 218 nM and 283 nM. The Kd (MINK1) was 173 nM, the Kd (ADCK1) was 654 nM and the Kd (SRC) was 184 nM and 157 nM. The Kd (MAP3K11) was 46.3 nM, the Kd (BUB1) was 127 nM and 110 nM and the Kd (RIPK2) was 273 nM.

For Cl.NCC1(c2nc(-c3ccc(Cl)c(O)c3)c(-c3ccncc3)[nH]2)CCCCC1 [TCMDC-141154], the Kd (CSNK1D) was 44 nM and 50.4 nM, the Kd (CSK) was 2650 nM and the Kd (CSNK1E) was 226 nM. The Kd (MAP2K5) was 479 nM, the Kd (MINK1) was 837 nM and the Kd (SRC) was 111 nM. The Kd (BUB1) was 82.5 nM and 58.4 nM and the Kd (RIPK2) was 14.5 nM and 17.5 nM.

CN(C)CC(O)COc1ccc(Nc2ncc([N+](=O)[O-])c(Nc3ccccc3O)n2)cc1.O=C(O)C(F)(F)F (stereo not drawn) [TCMDC-141399] was tested, and the Kd (CAMKK2) was 1940 nM and 2040 nM, the Kd (PTK2) was 26.9 nM and 29 nM and the Kd (ADCK1) was 1180 nM. The Kd (MAP3K11) was 728 nM and 328 nM.
